Assay results taken from patent EP1377579B1 (Aventis Pharmaceuticals Inc., priority 2000, dated 2002).

Columns and labels:
in vivo = conditions: male, Hsd:ICR (CD-1), mouse, plasma
Procedure: (§2) Male mice are given single intravenous cassette doses of CDK inhibitor compounds.
(§3) Doses are adjusted for the weight of the individual dihydrochloride and trihydrochloride salts. The compounds are stored desiccated within a closed cabinet at room temperature before use. Dose levels are prepared on the morning of each study.
(§4) A single intravenous cassette dose (18 or 15 mg/kg free base) is administered. For each compound, this is equivalent to a dose of approx. 3 mg/kg free base. […] The dose is administered at a volume of 10 ml/kg (total volume of approximately 0.25 ml/animal).
(§5) Male mice (Hsd:ICR (CD-1® SD®), Harlan), each weighing approximately 20 - 30 g at the start of the study. […] Water is available ad libitum throughout the study.
(§6) Dose Administration and Sample Collection: • A single cassette dose of 5-6 compounds is administered by bolus injection into the tail vein over a 10 - 15-second period. […] Whole blood (approximately 0.6 ml/sample) is obtained by cardiac puncture and transferred to 3 ml glass tubes containing 45 U sodium heparin.
(§7) Sample Processing: Plasma: Whole blood is centrifuged at approximately 3,200 rpm for 10 min at approximately 5°C and the plasma (approx. 0.3 ml/sample) is transferred to chilled plastic vials and stored at approx. -70°C until bioanalysis.
(§8) Sample Analysis: Concentrations of each test article in plasma are quantitated by a non-validated method based on LC/MS using the following protocol.
(§9) Samples are removed from the freezer, allowed to thaw at room temperature, and vortexed to insure complete homogenization prior to sample manipulation. Samples are then prepared according to the following scheme: • 1. transfer 48 µL of plasma (blank mouse sample) into a 12 x 75 mm test tube. • 2. add 12 µL of working standard to the blank plasma for standard curve preparation. • 3. […] Inject 25 µL on LC/MS.
(§10) Data Analysis: Concentrations of Compounds in plasma of individual animals are determined by bioanalytics. […] Statistical analyses are limited to simple expressions of variation (mean and standard deviation). The plasma AUC (area-under-curve) is determined by the linear trapezoidal rule. […] All PK parameters are determined by noncompartmental methods using WinNonlin version 3.0 (Pharsight Corp). Plasma vs. time profiles are prepared by Sigma Plot (SPSS, Inc.).

[1] = Red blood cell binding, mouse whole blood; assay type: in vitro ADME; conditions: 30 minutes at 37°C, 500 ng/ml
HL-60 = experiment: In vitro proliferation assay (MTT), HL-60; assay type: cell-based; conditions: Homo sapiens, HL-60; MTT assay; value (SD, n) where given; read-out: HL-60 Leuk. (IC50 µM)
Procedure, shortened: (§1)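 Tetrazolium (MTT) proliferation test following a 3-day treatment with compound. Read-out is optical density at 570 nm after DMSO solubilization.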

PC-3 = experiment: In vitro proliferation assay (MTT), PC-3; assay type: cell-based, human; conditions: Homo sapiens, PC-3, MTT assay; value (SD, n) where given; read-out: PC-3 Prostate (IC50 µM)
Procedure, shortened: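 IC50 values come from absorbance at 570 nm after MTT staining of cells grown with compound for 3 days. Seeding density was 1000 to 2500 cells/well, depending on the line.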

cdk4/cyclin D1 = cdk4/cyclin D1 (Homo sapiens, UniProt P11802); experiment: Cyclin-dependent kinase assay, cdk4/cyclin D1; assay type: biochemical; conditions: cyclin D1/cdk4; GST-pRb substrate, 10 µM ATP
cdk4/cyclin D1, sequence (P11802 whole entry): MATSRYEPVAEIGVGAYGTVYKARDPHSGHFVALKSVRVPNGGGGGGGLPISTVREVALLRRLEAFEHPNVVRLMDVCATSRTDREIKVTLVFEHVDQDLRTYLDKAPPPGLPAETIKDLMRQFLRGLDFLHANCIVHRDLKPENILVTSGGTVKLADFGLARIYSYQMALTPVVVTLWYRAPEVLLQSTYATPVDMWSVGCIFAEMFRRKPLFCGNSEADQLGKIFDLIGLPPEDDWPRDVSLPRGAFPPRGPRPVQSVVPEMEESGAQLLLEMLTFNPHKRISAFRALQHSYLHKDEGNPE
cdk4/cyclin D1, sequence (P24385 whole entry partner): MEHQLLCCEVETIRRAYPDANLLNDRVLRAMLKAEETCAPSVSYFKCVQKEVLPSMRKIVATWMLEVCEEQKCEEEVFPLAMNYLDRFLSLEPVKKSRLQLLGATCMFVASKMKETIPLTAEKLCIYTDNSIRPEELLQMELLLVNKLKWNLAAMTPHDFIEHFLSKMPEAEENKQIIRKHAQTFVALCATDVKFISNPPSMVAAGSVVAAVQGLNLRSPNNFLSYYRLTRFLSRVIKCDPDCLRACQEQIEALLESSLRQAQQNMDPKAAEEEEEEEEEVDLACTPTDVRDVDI

[2] = Bioavailability experiment in mice given single intravenous cassette doses; conditions: for Cls: mice plasma, single intravenous cassette dose; for Conc. (ng/ml) in plasma: Cassette #2, single 18 mg/kg intravenous cassette dose, BLQ = below assay quantification limit
Procedure: as §2, §3, §4, §5, §6, §7, §8, §9, §10

NCI-H460 = experiment: In vitro proliferation assay (MTT), NCI-H460; assay type: cell-based; conditions: Homo sapiens, NCI-H460; MTT assay; value (SD, n) where given; read-out: H-460 Lung (IC50 µM)
Procedure, shortened: as §1

cdk2/cyclin E = cdk2/cyclin E (Homo sapiens, UniProt P24941); experiment: Cyclin-dependent kinase assay, cdk2/cyclin E; conditions: CDK2 IC50, nM, GST-pRb substrate, 10 µM ATP

Compound	AUC(0-inf) (in vivo; iv, 3 mg/kg) [ng·h/mL]	Cmax (in vivo; iv, 3 mg/kg) [ng/mL]	half-life (in vivo; iv, 3 mg/kg) [min]	Mean Red Blood Cell to Plasma Ratio [1]	IC50 (HL-60) [µM]	IC50 (PC-3) [µM]	IC50 (cdk4/cyclin D1) [nM]	IC50 (NCI-H460) [µM]	IC50 (cdk2/cyclin E) [nM]	other results
Cl.Cl.N[C@H]1CC[C@H](Nc2nc(NC3CCN(C(=O)Nc4ccc(C(F)(F)F)cc4)CC3)c3ncn(C4CCCC4)c3n2)CC1 [compound 149, trans-4-[2-(4-Amino-cyclohexylamino)-9-cyclopentyl-9H-purin-6-ylamino]-piperidine-1-carboxylic acid (4-trifluoromethyl-phenyl)-amide dihydrochloride]	1020	3110	96	3.4	0.03	0.26	91	0.32	51	concentration at 0.083 h (in vivo; intravenous, 3 mg/kg): 3110 ± 703 ng/mL; concentration at 0.25 h (in vivo; intravenous, 3 mg/kg): 419 ± 69.8 ng/mL; concentration at 0.5 h (in vivo; intravenous, 3 mg/kg): 133 ± 10.2 ng/mL; concentration at 1 h (in vivo; intravenous, 3 mg/kg): 59.8 ± 17.3 ng/mL; concentration at 3 h (in vivo; intravenous, 3 mg/kg): 15.5 ± 4.8 ng/mL; concentration at 6 h (in vivo; intravenous, 3 mg/kg): 4.1 ± 2.1 ng/mL; concentration at 8 h (in vivo; intravenous, 3 mg/kg): 5.4 ± 0.5 ng/mL; Cls ([2]; 3 mg/kg/compound (15 mg/kg Total Dose), Cassette #3): 49.1 mL/min/kg; Conc. in plasma ([2]; mice, single 15 mg/kg intravenous cassette dose (3 mg/kg/compound), Cassette #3, 24 h, BLQ = below assay quantification limit (approximately 1 ng/ml)): BLQ
CCOC(=O)c1ccc(NC(=O)N2CCC(Nc3nc(N[C@H]4CC[C@H](N)CC4)nc4c3ncn4C3CCCC3)CC2)cc1.Cl.Cl [compound 154, trans-4-[(1-{4-[2-(4-Amino-cyclohexylamino)-9-cyclopentyl-9H-purin-6-ylamino]-piperidin-1-yl}-methanoyl)-amino]-benzoic acid ethyl ester dihydrochloride]	1580	4850	48	17.8	0.06	0.23	285	0.24	30	concentration at 0.083 h (in vivo; iv, 18 mg/kg): 4850 ± 794 ng/mL; concentration at 0.25 h (in vivo; iv, 18 mg/kg): 1130 ± 243 ng/mL; concentration at 0.5 h (in vivo; iv, 18 mg/kg): 377 ± 73.2 ng/mL; concentration at 1 h (in vivo; iv, 18 mg/kg): 126 ± 12.3 ng/mL; concentration at 3 h (in vivo; iv, 18 mg/kg): 8.4 ± 3.1 ng/mL; concentration at 6 h (in vivo; iv, 18 mg/kg): 2.3 ± 1.6 ng/mL; Conc. (ng/ml) in plasma ([2]; mice, 8 h, Mean ± SD): BLQ^a; Conc. (ng/ml) in plasma ([2]; mice, 24 h): BLQ^a; Cls ([2]; 3 mg/kg/compound (18 mg/kg Total Dose), Cassette #2): 31.6 mL/min/kg
